The record followed here is publication PMC12061237, “Berberine is a Novel Mitochondrial Calcium Uniporter Inhibitor that Disrupts MCU‐EMRE Assembly” (Advanced Science, 2025).

The target of the test is T1, GST-MCU (recombinant) (Homo sapiens, UniProt Q8NE86).
T1 construct: recombinant GST fusion
T1 sequence (Q8NE86 51-351): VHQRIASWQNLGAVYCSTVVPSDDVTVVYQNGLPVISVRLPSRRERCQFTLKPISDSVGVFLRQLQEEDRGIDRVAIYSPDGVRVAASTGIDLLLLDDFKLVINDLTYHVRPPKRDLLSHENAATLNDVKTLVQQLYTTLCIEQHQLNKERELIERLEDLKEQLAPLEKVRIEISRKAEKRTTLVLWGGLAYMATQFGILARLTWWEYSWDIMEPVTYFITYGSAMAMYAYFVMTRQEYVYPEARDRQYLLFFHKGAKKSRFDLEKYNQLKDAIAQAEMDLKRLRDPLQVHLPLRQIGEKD
Nature of the test: in vitro biotin pull-down, immunoblot. The test is classed as binding. To be noted: biotin-labelled compound 2 µg, 4 °C; competed by free berberine. For orientation: A western blot detects proteins with antibodies after separation by electrophoresis.

Consider `COc1ccc2cc3[n+](cc2c1OC(=O)CCCCCNC(=O)CCCC[C@@H]1SC[C@@H]2NC(=O)N[C@@H]21)CCc1cc2c(cc1-3)OCO2` [Biotin-Berberine], for which the “in vitro biotin pull-down, immunoblot” value is on record as “Biotin‐BBR directly binds to recombinant glutathione‐S‐transferase (GST)‐MCU”.
